Reference: US8053439B2, “Benzophenone derivatives useful for inhibiting formation of microtubule” (Chong Kun Dang Pharmaceutical Corp., priority 2006, dated 2011)
Where two headings read alike, the source gives them in different places.

Test system: HL60 cells
Test: Inhibition effect of HL60 cell line growth (MTT, 3 days)
Assay type: cell-based
Conditions: Homo sapiens, HL-60, 72 h, read-out: HL60 Growth Inhibition
Procedure: 1. Inhibition Effect of HL60 Cell Line Growth
A 10% FBS-contained RPMI1640 badge was used for culturing HL60 cells. The test substance was prepared by dissolving in DMSO to a concentration of 10 mg/ml, and continuously diluting with PBS to a final concentration of 100 μg/ml to 0.03 μg/ml. In a 96-well microplate, 180 μl of the badge containing 6.0×10^4 cells/ml of cells and 20 μl of continuously diluted test substance were added. The mixture was cultured at 37° C. with 5% CO2 atmosphere for 3 days. After completion of the cultivation, 50 μl of a solution of 1.25 mg/ml MTT (3-(4,5-dimethylthiazol-2-yl)-2,5-diphenyltetrazolium bromide) dissolved in PBS was added to all wells, and the resulting mixture was reacted at 37° C. for 3 hours. Thus formed formazan crystals were dissolved in 150 μl of DMSO, and an absorbance was measured at 570 nm.

[1] = HL60 cells, 3 days culture, MTT, absorbance 570 nm

IC50 [1] | Structure (SMILES) | IC50
30 nM | COc1cc(C(=O)c2cc(-c3ccc[nH]3)ccc2-n2cncn2)cc(OC)c1OC [Compound 409, (5-(1H-pyrrole-2-yl)-2-(1H-1,2,4-triazol-1-yl)phenyl)(3,4,5-trimethoxyphenyl)methanone] | –
110 nM | COc1cc(C(=O)c2ccc(-c3csc(N)n3)cc2)cc(OC)c1OC [Compound 571, (4-(2-aminothiazol-4-yl)phenyl)(3,4,5-trimethoxyphenyl)methanone] | –
220 nM | COc1cc(C(=O)c2cc(-c3ccccn3)ccc2NS(C)(=O)=O)cc(OC)c1OC [Compound 335, N-(4-(pyridin-2-yl)-2-(3,4,5-trimethoxybenzoyl)phenyl)methanesulfonamide] | –
90 nM | COc1cc(C(=O)c2cc(-c3nccs3)ccc2O)cc(OC)c1OC [Compound 601, (2-hydroxy-5-(thiazol-2-yl)phenyl)(3,4,5-trimethoxyphenyl)methanone] | –
90 nM | COc1cc(C(=O)c2ccc(-c3nccs3)cc2-n2cncn2)cc(OC)c1OC [Compound 464, (4-(thiazol-2-yl)-2-(1H-1,2,4-triazol-1-yl)phenyl)(3,4,5-trimethoxyphenyl)methanone] | –
140 nM | COc1cc(C(=O)c2ccc(-c3ccc[nH]3)cc2-n2cncn2)cc(OC)c1OC [Compound 599, (4-(1H-pyrrol-2-yl)-2-(1H-1,2,4-triazol-1-yl)phenyl)(3,4,5-trimethoxyphenyl)methanone] | –
170 nM | O=C(c1ccc(-c2ccco2)cc1-n1cncn1)c1c(F)c(F)c(F)c(F)c1F [Compound 446, (4-(furan-2-yl)-2-(1H-1,2,4,-triazol-1-yl)phenyl)(pentafluorophenyl)methanone] | –
30 nM | COc1cc(C(=O)c2cc(-c3nccs3)ccc2-n2cncn2)cc(OC)c1OC [Compound 347, (5-(thiazol-2-yl)-2-(1H-1,2,4-triazol-1-yl)phenyl)(3,4,5-trimethoxyphenyl)methanone] | –
11600 nM | COc1cc(C(=O)c2ccc(-c3ccccc3O)cc2F)cc(OC)c1OC [Compound 457, (2′-hydroxy-3-(fluoro)biphenyl-4-yl)(3,4,5-trimethoxyphenyl)methanone] | –
100 nM | COC(=O)c1ccc(-c2nccs2)cc1C(=O)c1cc(OC)c(OC)c(OC)c1 [Compound 374, 4-(thiazol-2-yl)-2-(3,4,5-trimethoxybenzoyl)benzoic acid methyl ester] | –
90 nM | COc1cc(C(=O)c2ccc(-c3csc(NC(C)=O)n3)cc2-n2cncn2)cc(OC)c1OC [Compound 560, N-(4-(3-(1H-1,2,4-triazol-1-yl)-4-(3,4,5-trimethoxybenzoyl)phenyl)thiazol-2-yl)acetamide] | –
390 nM | COCOc1c(C)cc(C(=O)c2cc(-c3ccco3)ccc2OC)cc1C [Compound 265, (5-(furan-2-yl)-2-methoxyphenyl)(4-(methoxymethoxy)-3,5-dimethylphenyl)methanone] | –
330 nM | COc1cc(C(=O)c2ccc(-c3c[nH]c(NC(C)=O)n3)cc2-n2cncn2)cc(OC)c1OC [Compound 531, N-(4-(3-(1H-1,2,4-triazol-1-yl)-4-(3,4,5-trimethoxybenzoyl)phenyl)-1H-imidazol-2-yl)acetamide] | –
3100 nM | COc1cc(C(=O)c2ccc(-c3cncnc3)cc2-n2cncn2)cc(OC)c1OC [Compound 455, (4-(pyrimidin-5-yl)-2-(1H-1,2,4,-triazol-1-yl)phenyl)(3,4,5-trimethoxyphenyl)methanone] | –
70 nM | COc1cc(C(=O)c2cc(-c3nccs3)ccc2N)cc(CO)c1OC [Compound 286, (2-amino-5-(thiazol-2-yl)phenyl)(3-(hydroxymethyl)-4,5-dimethoxyphenyl)methanone] | –
48 nM | COc1cc(C(=O)c2cc(-c3cccs3)ccc2N)cc(OC)c1OC [Compound 283, (2-amino-5-(thiophen-2-yl)phenyl)(3,4,5-trimethoxyphenyl)methanone] | –
170 nM | COc1cc(C(=O)c2cc(-c3ccco3)ccc2-n2cncn2)cc(OC)c1OC [Compound 322, (5-(furan-2-yl)-2-(1H-1,2,4-triazol-1-yl)phenyl)(3,4,5-trimethoxyphenyl)methanone] | –
110 nM | COc1cc(C(=O)c2cc(-c3nccs3)ccc2C(O)CO)cc(OC)c1OC (stereo not drawn) [Compound 372, (2-(1,2-dihydroxyethyl)-5-(thiazol-2-yl)phenyl)(3,4,5-trimethoxyphenyl)methanone] | –
170 nM | COc1cc(C(=O)c2cc(-c3ccsc3)ccc2NC(C)=O)cc(OC)c1OC [Compound 300, N-(4-(thiophen-3-yl)-2-(3,4,5-trimethoxybenzoyl)phenyl)acetamide] | –
250 nM | COc1cc(C(=O)c2ccc(-c3csc(C(C)(C)O)n3)cc2-n2cncn2)cc(OC)c1OC [Compound 563, (4-(2-(2-hydroxypropan-2-yl)thiazol-4-yl)-2-(1H-1,2,4-triazol-1-yl)phenyl)(3,4,5-trimethoxyphenyl)methanone] | –

IC50 [1] | Structure (SMILES) | IC50
120 nM | COc1cc(C(=O)c2cccc(-c3csc(N)n3)c2)cc(OC)c1OC [Compound 570, (3-(2-aminothiazol-4-yl)phenyl)(3,4,5-trimethoxyphenyl)methanone] | –
110 nM | COc1cc(C(=O)c2cc(-c3ccc[nH]3)ccc2NCCCO)cc(OC)c1OC [Compound 363, (2-(3-hydroxypropylamino)-5-(1H-pyrrole-2-yl)phenyl)(3,4,5-trimethoxyphenyl)methanone] | –
25000 nM | Nc1nc(-c2ccc(C(=O)c3ccccc3)c(-n3cncn3)c2)cs1 [Compound 519, (4-(2-aminothiazol-4-yl)-2-(1H-1,24-triazol-1-yl)phenyl)(phenyl)methanone] | –
110 nM | COc1cc(C(=O)c2cc(-c3ccco3)ccc2-n2ccnc2)cc(OC)c1OC [Compound 354, (5-(furan-2-yl)-2-(1H-imidazol-1-yl)phenyl)(3,4,5-trimethoxyphenyl)methanone] | –
150 nM | CNc1ccc(-c2ccco2)cc1C(=O)c1cc(OC)c(OC)c(OC)c1 [Compound 282, (5-(furan-2-yl)-2-(methylamino)phenyl)(3,4,5-trimethoxyphenyl)methanone] | –
60 nM | COc1cc(C(=O)c2ccc(-c3cncs3)cc2-n2cncn2)cc(OC)c1OC [Compound 534, (4-(thiazol-5-yl)-2-(1H-1,2,4-triazol-1-yl)phenyl)(3,4,5-trimethoxyphenyl)methanone] | –
90 nM | COc1cc(C(=O)c2cc(-c3ccco3)ccc2F)cc(OC)c1OC [Compound 327, (2-fluoro-5-(furan-2-yl)phenyl)(3,4,5-trimethoxyphenyl)methanone] | –
110 nM | COc1cc(C(=O)c2cc(-c3nccs3)ccc2NC(C)=O)cc(OC)c1OC [Compound 277, N-(4-(thiazol-2-yl)-2-(3,4,5-trimethoxybenzoyl)phenyl)acetamide] | –
190 nM | COc1cc(C(=O)c2cc(-c3nccs3)ccc2NS(C)(=O)=O)cc(OC)c1OC [Compound 308, N-(4-(thiazol-2-yl)-2-(3,4,5-trimethoxybenzoyl)phenyl)methanesulfonamide] | –
25 nM | CCS(=O)(=O)c1cccc(-c2ccc(C(=O)c3cc(OC)c(OC)c(OC)c3)c(-n3cncn3)c2)c1 [Compound 479, (3′-ethanesulfonyl-3-[1,2,4]triazol-1-yl-biphenyl-4-yl)(3,4,5-trimethoxyphenyl)methanone] | –
3180 nM | COc1cc(C(=O)c2ccc(-c3ccsc3)cc2F)cc(OC)c1OC [Compound 458, (2-fluoro-4-(thiophen-3-yl)phenyl)(3,4,5-trimethoxyphenyl)methanone] | –
120 nM | COc1cc(C(=O)c2ccc(-c3cccc(NS(C)(=O)=O)c3)cc2N)cc(OC)c1OC [Compound 494, N-(3′-amino-4′-(3,4,5-trimethoxybenzoyl)-biphenyl-3-yl)methanesulfonamide] | –
– | COc1ccc(-c2ncco2)cc1C(=O)c1cc(OC)c(OC)c(OC)c1 [Compound 590, (2-methoxy-5-(oxazol-2-yl)phenyl)(3,4,5-trimethoxyphenyl)methanone] | 10 nM
280 nM | COc1cc(C(=O)c2ccc(-c3nccs3)cc2-n2cncn2)cc(OC)c1OC(F)F [Compound 538, (4-(difluoromethoxy)-3,5-dimethoxyphenyl)(4-(thiazol-2-yl)-2-(1H-1,2,4-triazol-1-yl)phenyl)methanone] | –
130 nM | COc1cc(C(=O)c2cc(-c3cccs3)ccc2NC(C)=O)cc(OC)c1OC [Compound 279, N-(4-(thiophen-2-yl)-2-(3,4,5-trimethoxybenzoyl)phenyl)acetamide] | –
80 nM | COc1cc(C(=O)c2ccc(-c3ccco3)cc2-n2cncn2)cc(OC)c1OC [Compound 443, (4-(furan-2-yl)-2-(1H-1,2,4-triazol-1-yl)phenyl)(3,4,5-trimethoxyphenyl)methanone] | –
120 nM | COc1cc(C(=O)c2cc(-c3ccco3)ccc2NC(C)=O)cc(OC)c1OC [Compound 231, N-(4-(furan-2-yl)-2-(3,4,5-trimethoxybenzoyl)phenyl)acetamide] | –
160 nM | COc1cc(C(=O)c2cc(-c3cccc(NS(C)(=O)=O)c3)ccc2F)cc(OC)c1OC [Compound 486, N-[4′-fluoro-3′-(3,4,5-trimethoxybenzoyl)-biphenyl-3-yl]-methanesulfonamide] | –
160 nM | COc1cc(C(=O)c2ccc(-c3cccc(C#N)c3)cc2-n2cncn2)cc(OC)c1OC [Compound 506, 3′-[1,2,4]triazol-1-yl-4′-(3,4,5-trimethoxybenzoyl)-biphenyl-3-carbonitrile] | –
